Experimental data from US5202314A, “10-thioethyl-steroids” (Roussel Uclaf, priority 1991, dated 1993).

Biological target: T1, aromatase (Homo sapiens, UniProt P11511)
T1 construct: The supernatant was then subjected to an ultracentrifugation stage (90 minutes, 105,000 g) to obtain the microsomal regulus; from tissue; host or cells: human placenta, microsomal fraction
T1 sequence (P11511 1-503): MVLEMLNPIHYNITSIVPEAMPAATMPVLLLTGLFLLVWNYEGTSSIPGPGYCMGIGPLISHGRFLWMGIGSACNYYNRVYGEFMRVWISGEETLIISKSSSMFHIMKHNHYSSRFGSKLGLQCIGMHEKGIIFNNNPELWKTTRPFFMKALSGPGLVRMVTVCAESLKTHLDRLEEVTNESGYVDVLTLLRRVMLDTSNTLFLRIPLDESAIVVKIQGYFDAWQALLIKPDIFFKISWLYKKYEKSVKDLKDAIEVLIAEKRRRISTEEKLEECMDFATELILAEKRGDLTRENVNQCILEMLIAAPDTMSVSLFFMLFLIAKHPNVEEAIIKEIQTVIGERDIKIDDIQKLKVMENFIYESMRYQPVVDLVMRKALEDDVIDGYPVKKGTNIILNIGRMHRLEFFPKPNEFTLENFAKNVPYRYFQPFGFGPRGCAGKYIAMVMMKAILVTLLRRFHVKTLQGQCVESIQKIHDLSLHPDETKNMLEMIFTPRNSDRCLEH
Assay: Inhibition of aromatase in human placental microsomes (tritiated water release from 1β-2β-3H-Androstenedione)
Type: biochemical
Conditions: 25 micrograms of proteins per test, substrate Androstenedione 500 nM, NADPH, 37° C., 10 minutes, read-out: IC50 (concentration of inhibitor necessary to decrease by 50% the enzymatic activity)
Experimental: Inhibition dependent on the concentration (measurement of IC50 =concentration of inhibitor necessary to reduce the enzymatic activity by 50%). Human placentas were used which were washed one hour at most after birth, perfused with physiological serum (5 liters) via the umbilical vein and then deep-frozen at -40° C.
(1) Obtaining the placental microsomes
The placentas were thawed at 4° C. and then homogenized (1:3) in a phosphate buffer 10 mM, pH=7.0; containing 100 millimoles of potassium chloride (KCl), 10 millimoles of dithiothreitol (DTT), 10 millimoles of ethylenediaminetetraacetic acid (EDTA), 40 millimoles of nicotinamide and 250 millimoles of sucrose. […]
The supernatant was then subjected to an ultracentrifugation stage (90 minutes, 105,000 g) to obtain the microsomal regulus. […] The protein concentration of the microsomal suspension was determined by the BRADFORD method BRADFORD M., Anal. Biochem., Vol. 72, (1976), p. […]
After centrifugation, 100 microliters of supernatant were taken from each tube and counted in the presence of a scintillating liquid. […] The inhibition obtained for each concentration of each inhibitor product of the invention was calculated as a percentage of the controls (arbitrary 100% , obtained in absence of any inhibitor). […]

Structure (SMILES): CSCC[C@]12CCC(=O)C=C1[C@H](O)C[C@H]1[C@@H]3CCC(=O)[C@@]3(C)C[C@H]3O[C@]312 [Example 2, 9α, 11α-epoxy-10β-[2-methylthio-ethyl]-Δ^4-estrene-6β-ol-3,17-dione]
- IC50: 180 nM
